Measured values taken from patent publication US8691864B2, “Agents useful for reducing amyloid precursor protein and treating dementia and methods of use thereof” (priority 2000, dated 2014).

Tested on: βAPP
Experiment: βAPP protein levels in U373 MG astrocytoma cells, western blot
Type: cell-based
Conditions: FIGS. 6A-C, alone or with PD98059 or LY294002
Protocol: SK-N-SH neuroblastoma cells were cultured on 60 mm dishes at a concentration of 3×10^6 cells, and SH-SY-5Y neuroblastoma and U373 astrocytorna cell lines were plated in 100 mm dishes at a concentration of 3×10^5 cells. The cells were allowed to grow in complete medium ([…], 2 mM glutamine in DMEM) for 3 to 4 days until they reached 70% confluence. To start the experiment, spent medium was removed and replaced with fresh medium (SKNSH—4 ml of DMEM+0.5% FBS; U373—5 ml of DMEM+2.5% FBS) containing 0, 5, or 50 μM phenserine. The cells were incubated at 37° C., 5% CO2 for the specific times indicated. Different media and sera were purchased from Life Technologies (Gaithersberg, Md.). […]
At each time point, the spent medium was collected and stored at −70° C. for later analysis of secretory βAPP levels. The cells were washed twice with PBS, pH 7.4 and incubated on ice for 15 min for lysis with 100 μL of lysis buffer (20 mM HEPES, 2 mM EGTA, 50 mM (β-glycophosphate, 1 mM sodium orthovanadate, 1% Triton X-100, 10% glycerol) containing appropriate protease inhibitors (2 mM PMSF, 100 μg/mL aprotinin, 25 μM leupeptin and 20 μg/mL soybean trypsin inhibitor). Each lysate was microcentrifuged for 15 min at 14 000 rpm. Protein levels of the supernatant were analyzed by the Bradford protein assay (BioRad, Melville, N.Y.). […]

`CN1CC[C@@]2(C)c3cc(OC(=O)Nc4ccccc4)ccc3N(C)[C@@H]12` [(−)-phenserine] was tested, and the “reduction of βAPP protein levels, densitometric quantification” value was greater than 25%.
